Test system: LuxArray 1.04 E. coli strains (luxCDABE gene fusions)
Test: LuxArray 1.04 limonene stress of the reporter array in liquid culture
Type: cell-based
Details: for number of gene fusions upregulated by 2 fold or more / upregulation of gene fusion: 80% saturated limonene in LB; for number of gene fusions upregulated by 2 fold or more: LuxArray 1.04 (849 fusions)
Method: Microplates from −80° C. containing the LuxArray 1.04 E. coli strains were thawed and used to inoculate 100 μl LB medium supplemented with 100 μg/ml ampicillin in Costar#3595 flat bottomed 96-well microplates. Following overnight growth at 37° C., the plates were visually examined and any wells with little or no turbidity were recorded. Then these cultures were diluted by transfer of 15 μl to 135 μl LB medium in Costar #3595, flat bottom 96-well microplates and were moderately swirl shaken on an IKA Schuttler MTS 4 shaker at setting 400 for two hrs at 37° C. in a humidified box. Twenty μl of each these actively growing cultures were transferred to the corresponding well in sets of three microplates, one containing 80 μl of LB medium, another containing 80 μl of LB medium saturated with limonene at room temperature, and the third containing 40 μl of LB medium saturated with limonene and 40 μl of LB medium. An initial (zero time) reading was taken using an MLX microplate luminometer (Dynex) pre-warmed to 37° C. Then the plates were placed at 37° C. without shaking. Additional bioluminescent measurements were taken at 45, 90, and 135 minutes. To limit the number of microplates handled each day, LuxArray 1.04 microplates 1 to 5, microplates 6 to 10, microplates 11 to 15, and microplates […] were used on each of four different days.
The data were normalized to correct for growth-inhibition caused by limonene on the basis of each individual day that data was collected. The bioluminescence (RLU) of each individual culture for each day of experimentation under each of the three conditions, were added to determine the daily array total RLU. These were used to find a daily normalization factor (DNF) as follows:
DNF=Daily total array signal(time zero, LB control)/Daily total array signal(time x, condition y)
Each measurement from the corresponding day, time point, and condition was multiplied by DNF to yield a normalized signal. The data from wells that were scored to have little or no growth were not used in further analysis. The normalized data were analyzed with GeneSpring (Silicon Genetics) software, which averaged the signal from each of the duplicate cultures for each reporter gene fusion.
Thus, patterns of gene expression from the 80% saturated limonene in LB medium were further examined. […] These lists were examined and gene fusions with very low normalized RLU values (<0.012 RLU) at all conditions were eliminated. […] The designation of “>2X” is given for upregulation while “*” is listed if the expression was less than 2 fold increased. At 45 minutes, the expression of fourteen gene fusions was increased; none of these was increased 3 fold or higher. At 90 minutes, 37 gene fusions were induced; these included all but one of the gene fusions observed at 45 minutes. […] These were fusions of the luxCDABE reporter to the promoter regions of uhpT (3.8×), nirB (3.7×) and narK (3.6×). At 135 minutes, 39 gene fusions were induced, which included 13 fusions not observed at 45 or 90 minutes.

SMILES: C=C(C)[C@H]1CC=C(C)CC1 [limonene]
- upregulation of gene expression overall (40% saturated limonene in LB medium): little to no upregulation of gene expression
- number of gene fusions upregulated by 2 fold or more (45 minutes): fourteen
- number of gene fusions upregulated by 2 fold or more (90 minutes): 37 gene fusions
- number of gene fusions upregulated by 2 fold or more (135 minutes): 39 gene fusions
- upregulation of gene fusion (b0005 fusion, 45 minutes): * (“*” is listed if the expression was less than 2 fold increased)
- upregulation of gene fusion (b0005 fusion, 90 minutes): * (“*” is listed if the expression was less than 2 fold increased)
- upregulation of gene fusion (b0005 fusion, 135 minutes): >2X (The designation of “>2X” is given for upregulation)
- upregulation of gene fusion (b0123 (yacK) fusion, 45 minutes): * (“*” is listed if the expression was less than 2 fold increased)
- upregulation of gene fusion (b0314 (betT) fusion, 45 minutes): * (“*” is listed if the expression was less than 2 fold increased)
- upregulation of gene fusion (b0314 (betT) fusion, 90 minutes): >2X (The designation of “>2X” is given for upregulation)
- upregulation of gene fusion (b0314 (betT) fusion, 135 minutes): >2X (The designation of “>2X” is given for upregulation)
- upregulation of gene fusion (b0417 fusion, 45 minutes): * (“*” is listed if the expression was less than 2 fold increased)
- upregulation of gene fusion (b0417 fusion, 90 minutes): >2X (The designation of “>2X” is given for upregulation)
- upregulation of gene fusion (b0417 fusion, 135 minutes): >2X (The designation of “>2X” is given for upregulation)
- upregulation of gene fusion (b0422 (xseB) fusion, 45 minutes): * (“*” is listed if the expression was less than 2 fold increased)
- upregulation of gene fusion (b0422 (xseB) fusion, 90 minutes): >2X (The designation of “>2X” is given for upregulation)
- upregulation of gene fusion (b0422 (xseB) fusion, 135 minutes): * (“*” is listed if the expression was less than 2 fold increased)
- upregulation of gene fusion (b0572 fusion, 45 minutes): * (“*” is listed if the expression was less than 2 fold increased)
- upregulation of gene fusion (b0572 fusion, 90 minutes): >2X (The designation of “>2X” is given for upregulation)
- upregulation of gene fusion (b0572 fusion, 135 minutes): >2X (The designation of “>2X” is given for upregulation)
- upregulation of gene fusion (b0593 (entC) fusion, 45 minutes): * (“*” is listed if the expression was less than 2 fold increased)
- upregulation of gene fusion (b0593 (entC) fusion, 90 minutes): >2X (The designation of “>2X” is given for upregulation)
- upregulation of gene fusion (b0593 (entC) fusion, 135 minutes): >2X (The designation of “>2X” is given for upregulation)
- upregulation of gene fusion (b0839 (dacC) fusion, 45 minutes): * (“*” is listed if the expression was less than 2 fold increased)
- upregulation of gene fusion (b0839 (dacC) fusion, 90 minutes): >2X (The designation of “>2X” is given for upregulation)
- upregulation of gene fusion (b0839 (dacC) fusion, 135 minutes): >2X (The designation of “>2X” is given for upregulation)
- upregulation of gene fusion (b1188 (ycgB) fusion, 45 minutes): * (“*” is listed if the expression was less than 2 fold increased)
- upregulation of gene fusion (b1188 (ycgB) fusion, 90 minutes): >2X (The designation of “>2X” is given for upregulation)
- upregulation of gene fusion (b1188 (ycgB) fusion, 135 minutes): * (“*” is listed if the expression was less than 2 fold increased)
- upregulation of gene fusion (b1223 (narK) fusion, 45 minutes): * (“*” is listed if the expression was less than 2 fold increased)
- upregulation of gene fusion (b1223 (narK) fusion, 90 minutes): >2X (The designation of “>2X” is given for upregulation)
- upregulation of gene fusion (b1223 (narK) fusion, 135 minutes): >2X (The designation of “>2X” is given for upregulation)
- upregulation of gene fusion (b1676 (pykF) fusion, 45 minutes): >2X (The designation of “>2X” is given for upregulation)
- upregulation of gene fusion (b1676 (pykF) fusion, 90 minutes): >2X (The designation of “>2X” is given for upregulation)
- upregulation of gene fusion (b1676 (pykF) fusion, 135 minutes): >2X (The designation of “>2X” is given for upregulation)
- upregulation of gene fusion (b1872 (bisZ) fusion, 45 minutes): * (“*” is listed if the expression was less than 2 fold increased)
- upregulation of gene fusion (b1872 (bisZ) fusion, 90 minutes): >2X (The designation of “>2X” is given for upregulation)
- upregulation of gene fusion (b1872 (bisZ) fusion, 135 minutes): >2X (The designation of “>2X” is given for upregulation)
- upregulation of gene fusion (b1993 (cobU) fusion, 45 minutes): >2X (The designation of “>2X” is given for upregulation)
- upregulation of gene fusion (b1993 (cobU) fusion, 90 minutes): >2X (The designation of “>2X” is given for upregulation)
- upregulation of gene fusion (b1993 (cobU) fusion, 135 minutes): >2X (The designation of “>2X” is given for upregulation)
- upregulation of gene fusion (b2081 fusion, 45 minutes): >2X (The designation of “>2X” is given for upregulation)
- upregulation of gene fusion (b2081 fusion, 90 minutes): >2X (The designation of “>2X” is given for upregulation)
- upregulation of gene fusion (b2081 fusion, 135 minutes): * (“*” is listed if the expression was less than 2 fold increased)
- upregulation of gene fusion (b2237 (inaA) fusion, 45 minutes): * (“*” is listed if the expression was less than 2 fold increased)
- upregulation of gene fusion (b2237 (inaA) fusion, 90 minutes): >2X (The designation of “>2X” is given for upregulation)
- upregulation of gene fusion (b2237 (inaA) fusion, 135 minutes): >2X (The designation of “>2X” is given for upregulation)
- upregulation of gene fusion (b2322 fusion, 45 minutes): * (“*” is listed if the expression was less than 2 fold increased)
- upregulation of gene fusion (b2322 fusion, 90 minutes): >2X (The designation of “>2X” is given for upregulation)
- upregulation of gene fusion (b2322 fusion, 135 minutes): >2X (The designation of “>2X” is given for upregulation)
- upregulation of gene fusion (b2367 (emrY) fusion, 45 minutes): * (“*” is listed if the expression was less than 2 fold increased)
- upregulation of gene fusion (b2367 (emrY) fusion, 90 minutes): >2X (The designation of “>2X” is given for upregulation)
- upregulation of gene fusion (b2367 (emrY) fusion, 135 minutes): * (“*” is listed if the expression was less than 2 fold increased)
- upregulation of gene fusion (b2451 fusion, 45 minutes): * (“*” is listed if the expression was less than 2 fold increased)
- upregulation of gene fusion (b2451 fusion, 90 minutes): >2X (The designation of “>2X” is given for upregulation)
